Experimental data: ChEMBL document CHEMBL3271974, “Synthesis of the antileukemic compound N,N(11)-[5-[bis(2-chloroethyl)amino]-1, 3-phenylene]bisurea” (J Med Chem, 1976)

Columns and labels:
P388 [1] = experiment: Antitumor activity against mouse P388 cells allografted in mouse assessed as increase in survival rate at 120 mg/kg relative to control; assay type: functional
Mus musculus [2] = experiment: Toxicity in mouse allografted with mouse P388 cells at 120 mg/kg; assay type: organism-based; set-up: dose 120 mg/kg; conditions: in vivo
P388 [3] = experiment: Antitumor activity against mouse P388 cells allografted in mouse assessed as increase in survival rate at 225 mg/kg relative to control; assay type: functional
Mus musculus [4] = experiment: Toxicity in mouse allografted with mouse P388 cells at 225 mg/kg; assay type: organism-based; set-up: dose 225 mg/kg; conditions: in vivo

Structure (SMILES): NC(=O)Nc1cc(NC(N)=O)cc(N(CCCl)CCCl)c1
- T/C (P388 [1]): 194%
- Activity (Mus musculus [2]): Non-toxic

Structure (SMILES): CC(=O)Nc1cc(NC(C)=O)cc(N(CCCl)CCCl)c1
- T/C (P388 [3]): 196%
- Activity (Mus musculus [4]): Non-toxic
